Source: paper PMC10720709, “Design, synthesis, and evaluation of 4-(3-(3,5-dimethylisoxazol-4-yl)benzyl)phthalazin-1(2H)-one derivatives: potent BRD4 inhibitors with anti-breast cancer activity” (Frontiers in Pharmacology, 2023)

Experiments:
BD1 domain of BRD4 = tested on: BD1 domain of BRD4; set-up: method as in Hewings et al., 2013; details: ref Hewings et al., 2013; read-out: IC50 against the BD1 domain of BRD4; cited from earlier work
PARP1 = PARP1 (Homo sapiens, UniProt P09874); assay: PARP1 enzymatic activity ELISA; type: biochemical; details: ELISA
Procedure: The inhibition of PARP1 enzymatic activity by the tested compounds was gauged using an ELISA in 96-well plates. Each well was pre-coated with histone (20 μg/mL) in 100 μL of PBS buffer and incubated overnight at 4 °C. […] This was followed by the addition of 5 μL of either the compound at varying concentrations or a solvent control. The reaction was initiated by adding 20 μL of PARP (50 ng/well) and incubating at 30°C for 1 h. Post-reaction, 50 µL of streptavidin-conjugated HRP was introduced, and the assay continued at 30°C for an additional 30 min. Finally, 100 μL of a solution containing H2O2 and luminol in 0.1 M citrate buffer (pH 5.4) was added, and the luminescent signal was recorded using a Molecular Devices SpectraMax M5 microplate reader.

[1] = target: T1, recombinant BRD4 (BD1 + BD2) (Homo sapiens, UniProt O60885); assay: BRD4 TR-FRET activity assay; type: binding;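 also: signal rises with BET ligand binding to the bromodomains, so inhibitors lower it, 120 min incubation at room temperature, 1% DMSO, wells lacking ligand as negative control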
T1 construct: employing a recombinant BRD4 (BD1 + BD2) and its corresponding ligand
Procedure: The BRD4 activity assay utilized TR-FRET technology, employing a recombinant BRD4 (BD1 + BD2) and its corresponding ligand. The TR-FRET signal generated in the assay is proportional to the ligand’s binding to the bromodomains. All reactions contained a final DMSO concentration of 1%. All binding reactions were conducted at room temperature. Each 20 µL reaction mixture, in assay buffer, comprised bromodomains, the BET Ligand, and the specified inhibitor amount. For the negative control, 5 µL of assay buffer replaced the BET ligand. After a 120-min incubation with the ligand, the TR-FRET signal was captured using a Tecan Infinite M1000 plate reader. IC50 values were determined through nonlinear regression with a normalized dose-response fit in Prism GraphPad software.

MCF-7 cells [2] = assay: Cell cycle analysis (PI, flow cytometry); type: cell-based; details: for proportion of cells in G1 phase: 48 h
Procedure: The cell cycle distribution was assessed using the DNA Content Quantitation Assay Kit (Solarbio, China). […] After treatment, cells were harvested, fixed in ice-cold 70% ethanol overnight at 4°C, and subsequently washed with PBS. Cells were then treated with 100 μL RNase at 37°C for 30 min and stained with 400 μL PI for 30 min at 4°C in the dark. The cell cycle distribution was analyzed using an Accuri C6 Plus flow cytometer (BD Bioscience, CA), and data interpretation was performed with FlowJo software.

MDA-MB-468 cells = assay: MTT cell viability assay, MDA-MB-468; type: cell-based; details: Homo sapiens; MDA-MB-468, MTT, 72 h; read-out: Cytotoxicity IC50
Procedure: (§1) MDA-MB-468, MDA-MB-231, and MCF-7 cell lines were sourced from the National Collection of Authenticated Cell Culture, China. Cells were maintained in DMEM medium supplemented with 10% FBS and 1% penicillin/streptomycin, and incubated at 37°C in a humidified atmosphere containing 5% CO2.
(§2) The viability of cells was assessed using the MTT assay. Cells were seeded at a density of 3×10^3 cells per well in a 96-well plate and treated with varying concentrations (0.05, 0.2, 0.8, 3.2, 6.4, 12.8 µM) of the compounds for 72 h. Post-incubation, 100 µL of MTT solution (0.5 mg/mL) was added to each well and further incubated for 4 h. The resulting formazan crystals were dissolved in 150 µL DMSO, and the absorbance was measured at 570 nm using a microplate reader.

MCF-7 cells [3] = assay: Wound scratch cell migration assay; type: cell-based; details: MCF-7, wound scratch, 1 μM, 48 h
Procedure: MCF-7 cells were seeded in 6-well plates at a density of 5×10^5 cells/well and incubated overnight. A scratch was made in the cell monolayer using a 10 µL pipette tip. […] Images were captured at 0, 12, 24, and 48-h intervals.

MDA-MB-231 cells = assay: MTT cell viability assay, MDA-MB-231; type: cell-based; details: Homo sapiens; MDA-MB-231, MTT, 72 h; read-out: Cytotoxicity IC50
Procedure: as §1, §2

MCF-7 cells [4] = assay: Comet assay (DNA damage); type: cell-based; details: MCF-7, 24 h
Procedure: The comet assay was performed under alkaline conditions using the Comet Assay Kit (Beyotime, China) as per the manufacturer’s instructions. […] This mixture was spread onto microscope slides, which were then submerged in lysis solution for an hour. Electrophoresis was conducted in a horizontal apparatus at 25 V and 300 mA. Post-electrophoresis, slides were stained with PI for DNA visualization, and images were captured using a fluorescence inverted microscope.

γ-H2AX in MCF-7 cells = assay: Western blot of γ-H2AX; type: cell-based; details: MCF-7, 24 h
Procedure: (§3) Cells were then lysed using RIPA buffer supplemented with protease and phosphatase inhibitors. Protein concentrations were determined using the BCA Protein Assay Kit. Equal amounts of protein (20–30 µg) were separated by SDS-polyacrylamide gel electrophoresis and subsequently transferred to a polyvinylidene fluoride (PVDF) membrane. The membrane was blocked using 5% milk in PBS prior to incubation with primary antibodies. Primary antibodies against p-H2AX (Cell Signaling Technology™, US), c-MYC, and β-actin (Proteintech, US) were used. After overnight incubation at 4°C, membranes were washed and incubated with HRP-conjugated secondary antibodies for 1 h. Protein bands were visualized using ECL reagents.

MCF-7 cells [5] = assay: MTT cell viability assay, MCF-7; type: cell-based; details: Homo sapiens, MCF7; MCF-7, MTT, 72 h; read-out: Cytotoxicity IC50
Procedure: as §1, §2

[6] = tested on: c-MYC expression in MCF-7 cells; assay: Western blot of c-MYC; type: cell-based; details: MCF-7, 24 h
Procedure: as §3

MCF-7 cells [7] = assay: Clonogenic (colony formation) assay; type: cell-based; details: MCF-7, 0.3, 1, 3 μM, 8 days
Procedure: MCF-7 cells were seeded in 6-well plates at a density of 500 cells/well and allowed to grow for 8 days to facilitate colony formation. After incubation, cells were washed with PBS, fixed in methanol for 15 min, and stained with 1% crystal violet for an hour. Colonies were then imaged and counted.

Chain of PARP1 (P09874 whole entry): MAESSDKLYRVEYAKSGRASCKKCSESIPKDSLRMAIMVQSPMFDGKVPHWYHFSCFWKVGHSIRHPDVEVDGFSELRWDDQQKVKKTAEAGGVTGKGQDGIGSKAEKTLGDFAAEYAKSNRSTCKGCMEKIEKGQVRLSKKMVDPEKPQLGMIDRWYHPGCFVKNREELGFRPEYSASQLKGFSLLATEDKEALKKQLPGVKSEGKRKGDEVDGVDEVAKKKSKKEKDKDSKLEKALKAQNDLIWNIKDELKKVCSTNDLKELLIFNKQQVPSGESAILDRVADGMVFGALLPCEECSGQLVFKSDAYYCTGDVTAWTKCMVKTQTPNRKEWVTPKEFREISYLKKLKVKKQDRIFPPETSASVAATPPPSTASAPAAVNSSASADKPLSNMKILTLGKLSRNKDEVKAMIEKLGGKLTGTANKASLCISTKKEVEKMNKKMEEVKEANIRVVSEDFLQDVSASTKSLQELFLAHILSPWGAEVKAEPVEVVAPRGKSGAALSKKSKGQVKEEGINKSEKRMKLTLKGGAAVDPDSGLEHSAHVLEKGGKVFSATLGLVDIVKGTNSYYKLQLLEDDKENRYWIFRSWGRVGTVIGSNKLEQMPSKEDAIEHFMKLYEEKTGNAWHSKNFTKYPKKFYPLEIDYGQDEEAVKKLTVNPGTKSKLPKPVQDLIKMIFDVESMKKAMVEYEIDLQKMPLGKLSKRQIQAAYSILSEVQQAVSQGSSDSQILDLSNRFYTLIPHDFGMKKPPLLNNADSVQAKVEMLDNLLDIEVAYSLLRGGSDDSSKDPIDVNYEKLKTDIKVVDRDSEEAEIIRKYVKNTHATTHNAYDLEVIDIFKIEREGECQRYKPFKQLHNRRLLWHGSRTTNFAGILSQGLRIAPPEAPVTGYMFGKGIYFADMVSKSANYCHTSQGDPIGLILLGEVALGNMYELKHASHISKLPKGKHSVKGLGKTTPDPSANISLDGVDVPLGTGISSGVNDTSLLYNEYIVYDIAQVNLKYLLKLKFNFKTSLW

| IC50 (PARP1) | inhibition at 1 µM ([1]; 1 μmol/L, read-out: BRD4 inhibition rate) | IC50 ([1]; TR-FRET, BRD4 (BD1 + BD2)) | Structure (SMILES) | IC50 (BD1 domain of BRD4) | proportion of cells in G1 phase (MCF-7 cells [2]; MCF-7, 0.3 μM) | proportion of cells in G1 phase (MCF-7 cells [2]; MCF-7, 1 μM) | proportion of cells in G1 phase (MCF-7 cells [2]; MCF-7, 3 μM) | effect on cell cycle (in words) (MCF-7 cells [2]; MCF-7, 48 h) | IC50 (MDA-MB-468 cells) | inhibition of cell migration (in words) (MCF-7 cells [3]) | IC50 (MDA-MB-231 cells) | DNA damage (comet assay, in words) (MCF-7 cells [4]) | γ-H2AX level (Western blot) (γ-H2AX in MCF-7 cells) | IC50 (MCF-7 cells [5]) | expression of c-MYC (Western blot) [6] | colony formation (in words) (MCF-7 cells [7]) |
| --- | --- | --- | --- | --- | --- | --- | --- | --- | --- | --- | --- | --- | --- | --- | --- | --- |
|  |  |  | Cc1noc(C)c1-c1cc(O)cc(C(=O)c2ccccc2)c1 [Compound 7] | 544 nM |  |  |  |  |  |  |  |  |  |  |  |  |
| 4.29 ± 1.81 µM | 85% | 237 ± 93 nM | Cc1noc(C)c1-c1cc(Cc2n[nH]c(=O)c3ccccc23)cc(NC(=O)c2ccccc2C(F)(F)F)c1 [DDT26] |  | 53.8% | 59.8% | 64.5% | dose-dependent G1 phase cell cycle arrest | 3.96 µM | slightly less pronounced | 7.55 µM | induced DNA damage in MCF-7 cells in a dose-dependent manner | induced the accumulation of γ-H2AX in MCF-7 cells in a concentration-dependent fashion | 4.9 µM | downregulate the expression of c-MYC in MCF-7 cells in a concentration-dependent manner | inhibited colony formation in MCF-7 cells in a dose-dependent manner |
